From patent US20160331743A1 (UROGEN PHARMA LTD, priority 2014, published 2016)
“Also recorded” adds a separate entry of the source. Read-outs that look alike come from different tables or passages of the source.

Test system: carcinoma in situ (CIS) bladder cancer
Details: imiquimod 0.4%, once weekly for 6 weeks
Source text: Patients who have been diagnosed with CIS bladder cancer are potential candidates for the study. The CIS lesion(s) may be primary, secondary, or recurrent, and may be concomitant to a Ta or T1 lesion, provided the Ta or T1 lesion has been fully resected.
After provision of written informed consent, patients are to be evaluated for study eligibility during the screening period within 28 days (4 weeks) before Day 0 (i.e., the first day of study drug administration). Screening evaluations to be performed include medical history, physical examination, vital signs, Eastern Cooperative Oncology Group (ECOG) performance status, hematology and clinical chemistry, and urinalysis with culture. Screening evaluations also include a cystoscopic examination of the bladder with mapping and biopsy/ies of all suspicious areas between Days −28 and −14, followed by a bladder washing for cytology. Patients who have undergone such examinations as part of the diagnostic process outside of the study are not required to undergo the procedures again, provided the examinations occurred within the specified timeframe and positive slides are available for a central pathology and cytology review.
In cases with no visible lesions, at least one biopsy will be taken at the prior positive site and at least 1 additional random biopsy will be taken. Response to treatment will be determined based on urine cytology and tissue sample histology findings.
Patients meeting all of the following criteria were considered eligible for study entry: • 1. Males or female patient is aged ≧18 years. • 2. Patient has pathologically-proven, recurrent, primary, secondary, or concomitant carcinoma in situ disease, defined by having either CIS alone or Ta or T1 with CIS, provided the Ta or T1 lesion(s) has/have been fully resected. In cases with T1 tumor lesions, muscularis propria tissue should be in the resected specimen to confirm that it is tumor-free. • 3. Patient has undergone mapping of the bladder between Days −28 and −14, with at least one biopsy providing pathological confirmation of CIS of the bladder. • 4. Patient has undergone bladder washing for cytology between Days −28 and −1. In patients in whom Ta or T1 lesion(s) were resected, the bladder washing must have occurred after the resection. • 5. Patient has an ECOG performance status 0-2. • 6. Patient has adequate bone marrow, hepatic, and renal function within 4 weeks before Day 0.

## CC(C)Cn1cnc2c(N)nc3ccccc3c21 [imiquimod, 1-Isobutyl-1H-imidazo[4,5-c]quinolin-4-amine]
Patient 1 (BCG refractory, CIS), 50 mL intravesical
  Summary (response to treatment): Responder
Patient 1 (prior BCG, CIS prior to treatment), 200 mg in 50 mL intravesical, assessed 5 to 7 weeks after last dose
  Histology post treatment: no tumor was detecable
Patient 1, preliminary results, 50 mL intravesical
  Tumour detectable in follow-up evaluation: no tumour was detectable
Patient 2 (prior chemo, BCG; CIS), 50 mL intravesical, evaluation still ongoing
  Summary (response to treatment): partial responder
Patient 2 (prior chemotherapy, BCG, 9x TURBT, CIS prior to treatment), 50 mL intravesical
  Histology post treatment: still CIS detected and CIS
Patient 3 (no prior treatment), 50 mL intravesical
  Cytology post treatment: no tumor was detected any more
Patient 3 (no prior treatment, CIS + papillary cancer), 50 mL intravesical
  Summary (response to treatment): Responder
Patient 3 (no prior treatment, CIS + papillary high and low grade cancer prior to treatment), 50 mL intravesical
  Histology post treatment: no tumor was detected any more; also recorded: No tumor
Patient 4 (prior TURB, low grade prior to treatment; had no CIS bladder cancer, excluded from study), 50 mL intravesical
  Histology post treatment: No tumor
Patient 5 (prior BCG/Mitomycin, CIS prior to treatment), 50 mL intravesical
  Histology post treatment: no tumor was detectable
Patient 5 (prior BCG/Mitomycin, CIS), 50 mL intravesical
  Summary (response to treatment): Responder
Of the 5 patients analyzed (patients 1, 3, 4, 5 counted), 50 mL intravesical
  Number of patients with complete remission of the CIS bladder cancer as assessed by histology: Four
